Laboratory results as given in US20020137781A1, “Preparation and use of enantiomer-pure 2,4-disubstituted oxazolines” (priority 1999, published 2002).

Legend:
[1] = tested on: Heliothis virescens; assay: Ovicidal/larvicidal effect on Heliothis virescens; type: in vivo; conditions: 400 ppm spray on eggs laid on cotton, after 8 days
Description: Eggs of Heliothis virescens laid on cotton are sprayed with an aqueous emulsion spray mixture containing 400 ppm of active ingredient. After 8 days, the percentage hatching rate of the eggs and the survival rate of the caterpillars are compared with those for untreated controls (% reduction of population)

[2] = tested on: Nilaparvata lugens; assay: Effect against Nilaparvata lugens; type: in vivo; conditions: 400 ppm spray on rice plants, second and third instar larvae, 21 days
Procedure: Rice plants are sprayed with an aqueous emulsion spray mixture containing 400 ppm of active ingredient. After the spray coating has dried on, the rice plants are colonised with second and third instar larvae of plant and leaf-hoppers. 21 days later they are evaluated. The percentage reduction of the population (% response) is determined by comparing the number of surviving plant and leaf-hoppers on the treated plants with those on the untreated plants.

[3] = tested on: Aonidiella aurantii; assay: Effect against Aonidiella aurantii; type: in vivo; conditions: 400 ppm, potato tubers immersed, 10 to 12 weeks
Procedure: Potato tubers are colonised with crawlers of Aonidiella aurantii. After about 2 weeks, the potatoes are immersed in an aqueous emulsion or suspension spray mixture containing 400 ppm of active ingredient. After the tubers have dried off, they are incubated in a plastic container. Evaluation is effected 10 to 12 weeks later by comparing the survival rate of the crawlers of the first secondary generation of the treated population with that of untreated control batches.

[4] = tested on: Tetranychus urticae; assay: Ovicidal effect on Tetranychus urticae; type: in vivo; conditions: 400 ppm spray on bean plants colonised with eggs, 6 days at 25° C.
Procedure: Young bean plants are colonised with females of Tetranychus urticae, which are removed again after 24 hours. The plants colonised with eggs are sprayed with an aqueous emulsion spray mixture containing 400 ppm of active ingredient. The plants are incubated for 6 days at 25° C. and then evaluated. The percentage reduction of the population (% response) is determined by comparing the total number of dead eggs, larvae, and adults on the treated plants with those on the untreated plants.

[5] = tested on: Heliothis virescens; assay: Ovicidal effect on Heliothis virescens; type: in vivo; conditions: 400 ppm in acetone/water, eggs on filter paper immersed, after 6 days
Procedure: Eggs of Heliothis virescens deposited on filter paper are immersed briefly in a test solution comprising 400 ppm of the active ingredient to be tested in acetone/water. After the test solution has dried, the eggs are incubated in Petri dishes. After 6 days, the percentage hatching rate of the eggs is compared with that for untreated controls (% reduction in hatching rate).

[6] = tested on: Ctenocephalides felis; assay: In vitro effect on eggs, larvae, or pupae of the cat flea Ctenocephalides felis; conditions: 15, 1.5, 0.15 and 0.015 ppm test solutions, after 21 days
Procedure: Acetonic test solutions are prepared containing test substances in concentrations of 15, 1.5, 0.15 and 0.015 ppm. 9.9 ml of each test solution is mixed with 14.85 g of culture medium for flea larvae and dried for about 12 hours. The slightly clumped, dry culture medium is mechanically pulverized again until it is homogeneous and free-flowing. It is then transferred to bottles for the breeding of fleas. To each bottle, 100 to 200 flea eggs are added, the bottles are loosely closed with a wad of cottonwool and placed in an incubator at 25 to 26° C. and a relative humidity of about 60%. After 21 days, the effect of the test substances in the different concentrations is evaluated and the lowest effective concentration determined using a stereomicroscope. The activity is evaluated on the basis of the hatching rate, larva development, pupation, and the hatching of young fleas. Enantiomers A of formula (I) show a pronounced effect in this test.

[7] = tested on: Crocidolomia binotalis; assay: Effect against Crocidolomia binotalis; type: in vivo; conditions: 400 ppm spray on cabbage plants, third-instar caterpillars, three days
Procedure: Young cabbage plants are sprayed with an aqueous emulsion spray mixture containing 400 ppm of active ingredient. After the spray coating has dried on, the cabbage plants are colonised with 10 third-instar caterpillars of Crocidolomia binotalis and placed in a plastic container. Three days later they are evaluated. The percentage reduction of the population and of the feeding damage (% response) is determined by comparing the total number of dead caterpillars and the feeding damage on the treated plants with those on the untreated plants.

[8] = tested on: Panonychus ulmi; assay: Effect against Panonychus ulmi (resistant to organophosphates und carbaryl); type: in vivo; conditions: 400 ppm spray on apple seedlings, after 14 days
Procedure: Apple seedlings are colonised with adult females of Panonychus ulmi. After seven days, the infected plants are sprayed with an aqueous emulsion spray mixture containing 400 ppm of the test compound until they are dripping wet, and cultivated in the greenhouse. After 14 days, they are evaluated. The percentage reduction of the population (% response) is determined by comparing the number of dead spider mites on the treated plants with those on the untreated plants.

[9] = tested on: Blattella germanica; assay: Effect against Blattella germanica; type: in vivo; conditions: application rate of 2 g/m^2, nymphs exposed 2 hours, evaluated after 48 hours
Procedure: Sufficient acetonic solution (0.1%) of the active ingredient is added to a Petri dish for the quantity thereof to correspond to an application rate of 2 g/m^2. When the solvent has evaporated, 20 nymphs of Blattella germanica (last nymph stage) are placed in the dish and exposed to the action of the test substance for 2 hours. The nymphs are then anaesthetised with CO2, added to a fresh Petri dish and kept in the dark at 25° and 50 to 70% humidity. After 48 hours, the insecticidal effect is evaluated by determining the mortality rate.

[10] = tested on: Musca domestica of an OP-resistant strain; assay: Effect against Musca domestica; type: in vivo; conditions: 250 ppm in sugar cube, 25° C., after 24 hours, read-out: mortality rate (response)
Procedure: A sugar cube is treated with a solution of the test substance in such a way that the concentration of test substance in the sugar, after drying over night, is 250 ppm. The cube treated in this way is placed on an aluminium dish with wet cottonwool and 10 adult Musca domestica of an OP-resistant strain. It is covered with a beaker and incubated at 25° C. The mortality rate is determined after 24 hours.

[11] = tested on: Plutella xylostella; assay: Effect against Plutella xylostella caterpillars; type: in vivo; conditions: 400 ppm spray on cabbage plants, third-instar caterpillars, three days
Procedure: Young cabbage plants are sprayed with an aqueous emulsion spray mixture containing 400 ppm of active ingredient. After the spray coating has dried on, the cabbage plants are colonised with 10 third-instar caterpillars of Plutella xylostella and placed in a plastic container. Three days later they are evaluated. The percentage reduction of the population and percentage reduction in feeding damage (% response) is determined by comparing the number of dead larvae and the extent of feeding damage on the treated plants with those on the untreated plants.

[12] = tested on: Tetranychus urticae; assay: Effect against Tetranychus urticae; type: in vivo; conditions: 400 ppm spray on bean plants, mixed population, 6 days at 25° C.
Procedure: Young bean plants are colonised with a mixed population of Tetranychus urticae and, one day later, are sprayed with an aqueous emulsion spray mixture containing 400 ppm of active ingredient. The plants are subsequently incubated for 6 days at 25° C. and then evaluated. The percentage reduction of the population (% response) is determined by comparing the total number of dead eggs, larvae, and adults on the treated plants with those on the untreated plants.

## Fc1cccc(F)c1C1=NC(c2ccc(-c3ccc(C(F)(F)F)cc3)cc2)CO1 (single isomer, unassigned) [1.1, 2-(2,6-difluoro-phenyl)-4-(4′-trifluoromethylbiphenyl-4-yl)-4,5-dihydro-oxazole]
[1]
  % reduction of population (hatching rate of eggs and survival rate of caterpillars): more than 80%
[2]
  percentage reduction of the population (% response): more than 80%
[3]
  response (survival rate of the crawlers of the first secondary generation vs untreated): more than 80%
[4]
  percentage reduction of the population (% response): more than 80%
[5]
  % reduction in hatching rate (response): more than 80%
[6]
  effect on hatching rate, larva development, pupation and hatching of young fleas (in words): most active test substance
[7]
  percentage reduction of the population and of the feeding damage (% response): more than 80%
[8]
  percentage reduction of the population (% response): more than 80%
[9]
  mortality rate (response): more than 80%
[10]
  mortality at 250 ppm: > 80%
[11]
  percentage reduction of the population and percentage reduction in feeding damage (% response): more than 80%
[12]
  percentage reduction of the population (% response): more than 80%
